Data on 3 compounds can be found in ChEMBL document CHEMBL3745679, “Identification and characterization of natural microbial products that alter the free d-aspartate content of mammalian cells” (2016).

The subject of assay [1] is PC-12. The assay is described as follows: Effect on L-aspartate biosynthesis in rat PC12 cells assessed as effect on L-aspartate level in cell culture medium up to 0.2 uM after 24 hrs by O-phthalaldehyde/N-acetyl-L-cysteine derivatization technique-based HPLC analysis. In kind it is functional.
Assay [2] concerns PC-12. The assay is described as follows: Inhibition of D-aspartate biosynthesis in rat PC12 cells assessed as reduction of intracellular D-aspartate level after 24 hrs by O-phthalaldehyde/N-acetyl-L-cysteine derivatization technique-based HPLC analysis. It counts as functional, cell-based.
Assay [3] deals with PC-12. The assay is described as follows: Inhibition of D-aspartate biosynthesis in rat PC12 cells assessed as reduction of D-aspartate content in cell culture medium at 0.2 uM measured at 6 to 12 hrs by O-phthalaldehyde/N-acetyl-L-cysteine derivatization technique-based HPLC analysis relative to vehicle-treated control. It counts as functional.
In assay [4] the test system is PC-12. The assay is described as follows: Inhibition of D-aspartate biosynthesis in rat PC12 cells assessed as reduction of total D-aspartate content at 0.2 uM measured at 1 to 6 hrs by O-phthalaldehyde/N-acetyl-L-cysteine derivatization technique-based HPLC analysis relative to vehicle-treated control. In kind it is functional, cell-based.
For assay [5], the system named is PC-12. The assay is described as follows: Inhibition of D-aspartate biosynthesis in rat PC12 cells assessed as reduction of D-aspartate level in cell culture medium after 24 hrs by O-phthalaldehyde/N-acetyl-L-cysteine derivatization technique-based HPLC analysis. In kind it is functional.
In assay [6] the test system is PC-12. The assay is described as follows: Effect on L-aspartate biosynthesis in rat PC12 cells assessed as effect on total L-aspartate level up to 0.2 uM after 24 hrs by O-phthalaldehyde/N-acetyl-L-cysteine derivatization technique-based HPLC analysis. It counts as functional, cell-based.
The next assay deals with HEK293. The assay is described as follows: Increase in intracellular D-aspartate content in HEK293 cells at 5 ug after 24 hrs by O-phthalaldehyde/N-acetyl-L-cysteine derivatization technique-based HPLC analysis relative to total aspartate (reference value: 7.38 +/- 1.9%). In kind it is functional, Homo sapiens.
Assay [7] concerns PC-12. The assay is described as follows: Inhibition of D-aspartate biosynthesis in rat PC12 cells assessed as effect on intracellular D-aspartate content at 0.2 uM incubated up to 16 hrs by O-phthalaldehyde/N-acetyl-L-cysteine derivatization technique-based HPLC analysis relative to vehicle-treated control. In kind it is functional, cell-based.
The subject of assay [8] is PC-12. The assay is described as follows: Inhibition of D-aspartate biosynthesis in rat PC12 cells assessed as reduction of total D-aspartate content at 0.2 uM measured at 16 hrs by O-phthalaldehyde/N-acetyl-L-cysteine derivatization technique-based HPLC analysis relative to vehicle-treated control. It counts as functional, cell-based.
Assay [9] deals with PC-12. The assay is described as follows: Effect on L-aspartate biosynthesis in rat PC12 cells assessed as effect on intracellular L-aspartate level up to 0.2 uM after 24 hrs by O-phthalaldehyde/N-acetyl-L-cysteine derivatization technique-based HPLC analysis. In kind it is functional, cell-based.
Assay [10] concerns PC-12. The assay is described as follows: Effect on L-aspartate biosynthesis in rat PC12 cells assessed as effect on intracellular L-aspartate content up to 0.5 uM after 24 hrs by O-phthalaldehyde/N-acetyl-L-cysteine derivatization technique-based HPLC analysis. It counts as functional, cell-based.
In assay [11] the test system is PC-12. The assay is described as follows: Inhibition of D-aspartate biosynthesis in rat PC12 cells assessed as reduction of total D-aspartate level up to 0.5 uM after 24 hrs by O-phthalaldehyde/N-acetyl-L-cysteine derivatization technique-based HPLC analysis. In kind it is functional, cell-based.
Assay [12] has as its system PC-12. The assay is described as follows: Inhibition of D-aspartate biosynthesis in rat PC12 cells assessed as reduction of intracellular D-aspartate content up to 0.5 uM after 24 hrs by O-phthalaldehyde/N-acetyl-L-cysteine derivatization technique-based HPLC analysis. It counts as functional, cell-based.
The subject of assay [13] is PC-12. The assay is described as follows: Effect on L-aspartate biosynthesis in rat PC12 cells assessed as effect on total L-aspartate content up to 0.5 uM after 24 hrs by O-phthalaldehyde/N-acetyl-L-cysteine derivatization technique-based HPLC analysis. It counts as functional, cell-based.
Assay [14] concerns PC-12. The assay is described as follows: Inhibition of D-aspartate biosynthesis in rat PC12 cells assessed as reduction of D-aspartate level in cell culture medium up to 10 uM after 24 hrs by O-phthalaldehyde/N-acetyl-L-cysteine derivatization technique-based HPLC analysis. It counts as functional.
Assay [15] concerns PC-12. The assay is described as follows: Inhibition of D-aspartate biosynthesis in rat PC12 cells assessed as reduction of total D-aspartate content at 10 uM measured at 1 to 3 hrs by O-phthalaldehyde/N-acetyl-L-cysteine derivatization technique-based HPLC analysis relative to vehicle-treated control. It counts as functional, cell-based.
In assay [16] the test system is PC-12. The assay is described as follows: Effect on L-aspartate biosynthesis in rat PC12 cells assessed as effect on L-aspartate level in cell culture medium up to 10 uM after 24 hrs by O-phthalaldehyde/N-acetyl-L-cysteine derivatization technique-based HPLC analysis. It counts as functional.
Assay [17] relates to PC-12. The assay is described as follows: Inhibition of D-aspartate biosynthesis in rat PC12 cells assessed as reduction of intracellular D-aspartate level up to 10 uM after 24 hrs by O-phthalaldehyde/N-acetyl-L-cysteine derivatization technique-based HPLC analysis. It counts as functional, cell-based.
The subject of assay [18] is PC-12. The assay is described as follows: Inhibition of D-aspartate biosynthesis in rat PC12 cells assessed as reduction of total D-aspartate content at 10 uM measured at 6 to 16 hrs by O-phthalaldehyde/N-acetyl-L-cysteine derivatization technique-based HPLC analysis relative to vehicle-treated control. In kind it is functional, cell-based.
Assay [19] has as its system PC-12. The assay is described as follows: Inhibition of D-aspartate biosynthesis in rat PC12 cells assessed as reduction of intracellular D-aspartate content at 10 uM measured at 1 hr by O-phthalaldehyde/N-acetyl-L-cysteine derivatization technique-based HPLC analysis relative to vehicle-treated control. In kind it is functional, cell-based.
Assay [20] concerns PC-12. The assay is described as follows: Inhibition of D-aspartate biosynthesis in rat PC12 cells assessed as reduction of intracellular D-aspartate content at 10 uM measured at 3 to 16 hrs by O-phthalaldehyde/N-acetyl-L-cysteine derivatization technique-based HPLC analysis relative to vehicle-treated control. In kind it is functional, cell-based.
Assay [21] relates to PC-12. The assay is described as follows: Effect on L-aspartate biosynthesis in rat PC12 cells assessed as effect on total L-aspartate level up to 10 uM after 24 hrs by O-phthalaldehyde/N-acetyl-L-cysteine derivatization technique-based HPLC analysis. It counts as functional, cell-based.
Assay [22] deals with PC-12. The assay is described as follows: Effect on L-aspartate biosynthesis in rat PC12 cells assessed as effect on intracellular L-aspartate level up to 10 uM after 24 hrs by O-phthalaldehyde/N-acetyl-L-cysteine derivatization technique-based HPLC analysis. It counts as functional, cell-based.
Assay [23] concerns PC-12. The assay is described as follows: Inhibition of D-aspartate biosynthesis in rat PC12 cells assessed as reduction of total D-aspartate level after 24 hrs by O-phthalaldehyde/N-acetyl-L-cysteine derivatization technique-based HPLC analysis. It counts as functional, cell-based.

The source made the active and inactive calls. The calls are words filed in the database; no cut-off is given here.

Regarding `CO[C@@H](C(=O)[C@H](O)[C@@H](C)O)[C@H]1Cc2cc3cc(O[C@H]4C[C@@H](O[C@@H]5C[C@H](O)[C@@H](O)[C@H](C)O5)[C@H](O)[C@@H](C)O4)c(C)c(O)c3c(O)c2C(=O)[C@@H]1O[C@H]1C[C@@H](O[C@@H]2C[C@H](O[C@H]3C[C@](C)(O)[C@H](O)[C@@H](C)O3)[C@@H](O)[C@H](C)O2)[C@H](O)[C@@H](C)O1`, the result with PC-12 [1], in the assay on PC-12 [6] and in the assay with PC-12 [9] was inactive. For the same compound, the inhibition result in the assay on PC-12 [2] and in the assay on PC-12 [5] was “Dose-dependent effect” throughout. The inhibition entry in the assay with PC-12 [3] and in the assay on PC-12 [8] was “Active” in each case. The inhibition entry in the assay on PC-12 [4] and in the assay on PC-12 [7] was “inactive” each time. The same compound showed an Activity in the assay with HEK293 of 9.33%.

In the case of `CC(C)[C@H]1CC[C@@]2(CO2)[C@H]2C(=O)OCC(C(=O)O)=C[C@H]12`, the result in the assay with PC-12 [10] and in the assay with PC-12 [13] was inactive. For the same compound, the inhibition entry in the assay with PC-12 [11] and in the assay with PC-12 [12] was “inactive” in each case. Further, the Activity with HEK293 was determined as 0.291%.

Turning to `COC1=C2C[C@@H](C)C[C@H](OC)[C@H](O)[C@@H](C)/C=C(\C)[C@H](OC(N)=O)[C@@H](OC)/C=C\C=C(/C)C(=O)NC(=CC1=O)C2=O` [GELDANAMYCIN], the inhibition entry in the assay with PC-12 [14], in the assay with PC-12 [17], in the assay on PC-12 [18] and with PC-12 [20] was “Active” each time. In addition, the inhibition result in the assay on PC-12 [15] and in the assay on PC-12 [19] was “inactive” each time. In addition, the outcome in the assay on PC-12 [16], with PC-12 [21] and in the assay with PC-12 [22] was inactive. In the assay on HEK293, the Activity was determined as 15.8%. In addition, the inhibition result with PC-12 [23] was “Dose-dependent effect”.
